In the NIST ThermoML archive (doi:10.1016/j.jct.2006.07.002):
Numbers after ± are expanded uncertainties.

Key:
[1] = 293.15 K; 101.33 kPa; Liquid
[2] = refractive index (Na D-line) (dimensionless); conditions: 293.15 K; 101.33 kPa; Liquid; Standard Abbe refractometry
[3] = Boiling temperature at pressure P; conditions: Liquid, Distillation

Row | Compound | mass density [1] [kg/m3] | refractive index [2] | Boiling temperature at pressure P ([3]; 101.33 kPa) [°C] | Boiling temperature at pressure P ([3]; 1.733 kPa) [°C]
1 | CCCC(=O)O [butanoic acid] | 952.8 ± 0.58 | 1.3975 ± 0.0007 |  | 
2 | COC(=O)CCC(=O)OC [dimethyl 1,4-butanedioate] | 1119.13 ± 2.3 | 1.41969 ± 0.00078 | 196.1 ± 0.2 | 
3 | COC(=O)CCCCC(=O)OC [dimethyl 1,6-hexanedioate] | 1061.72 ± 0.67 | 1.42825 ± 0.0007 |  | 115 ± 1
4 | COC(=O)CCCC(=O)OC [dimethyl pentanedioate] | 1087.67 ± 0.76 | 1.42454 ± 0.0007 | 214.2 ± 0.2 | 
